Source: the supplement of paper PMC10307832

How the values were obtained:
Test in all cases: relative viability (nuclei count vs DMSO), 5 days (fraction); higher = more cells survive
MLN4924 + Navitoclax = compound: NS(=O)(=O)OC[C@@H]1C[C@@H](n2ccc3c(N[C@H]4CCc5ccccc54)ncnc32)C[C@@H]1O [MLN4924] + CC1(C)CCC(c2ccc(Cl)cc2)=C(CN2CCN(c3ccc(C(=O)NS(=O)(=O)c4ccc(N[C@H](CCN5CCOCC5)CSc5ccccc5)c(S(=O)(=O)C(F)(F)F)c4)cc3)CC2)C1 [Navitoclax] (partner 0.5 µM)
Procedure, shortened: (§1)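 For relative viability, nuclei counts in treated wells were divided by those in vehicle wells. Lung cancer cell lines had been pin-tool dosed in 1536-well plates the day after seeding and cultured for 5 days, then fixed and stained in one step (final 0.05% Triton X-100, 1% formaldehyde, 1 ug/ml Hoechst) and imaged at 4×. Doses were one drug alone or a fixed anchor-drug dose plus five library-drug doses (not always all listed) in √10 steps, and values are duplicate-plate medians.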

Carboplatin + Crizotinib = compound: C1CC(C1)(C(=O)O)C(=O)O.[NH2-].[NH2-].[Pt+2] [Carboplatin] + C[C@@H](Oc1cc(-c2cnn(C3CCNCC3)c2)cnc1N)c1c(Cl)ccc(F)c1Cl [Crizotinib] (partner 1 µM)
Procedure, shortened: as §1

Carboplatin + Vorinostat = compound: C1CC(C1)(C(=O)O)C(=O)O.[NH2-].[NH2-].[Pt+2] [Carboplatin] + O=C(CCCCCCC(=O)Nc1ccccc1)NO [Vorinostat] (partner 1 µM)
Procedure, shortened: as §1

MLN4924 + Olaparib = compound: NS(=O)(=O)OC[C@@H]1C[C@@H](n2ccc3c(N[C@H]4CCc5ccccc54)ncnc32)C[C@@H]1O [MLN4924] + O=C(c1cc(Cc2n[nH]c(=O)c3ccccc23)ccc1F)N1CCN(C(=O)C2CC2)CC1 [Olaparib] (partner 8 µM)
Procedure, shortened: as §1

| Cell Line | relative viability (MLN4924 + Navitoclax; first compound 0.04 µM) | relative viability (MLN4924 + Navitoclax; first compound 0.1265 µM) | relative viability (MLN4924 + Navitoclax; first compound 0.4 µM) | relative viability (MLN4924 + Navitoclax; first compound 1.265 µM) | relative viability (MLN4924 + Navitoclax; first compound 4 µM) | relative viability (Carboplatin + Crizotinib; first compound 0.08 µM) | relative viability (Carboplatin + Crizotinib; first compound 0.253 µM) | relative viability (Carboplatin + Crizotinib; first compound 0.8 µM) | relative viability (Carboplatin + Crizotinib; first compound 2.53 µM) | relative viability (Carboplatin + Crizotinib; first compound 8 µM) | relative viability (Carboplatin + Vorinostat; first compound 0.08 µM) | relative viability (Carboplatin + Vorinostat; first compound 0.253 µM) | relative viability (Carboplatin + Vorinostat; first compound 0.8 µM) | relative viability (Carboplatin + Vorinostat; first compound 2.53 µM) | relative viability (Carboplatin + Vorinostat; first compound 8 µM) | relative viability (MLN4924 + Olaparib; first compound 0.04 µM) | relative viability (MLN4924 + Olaparib; first compound 0.1265 µM) | relative viability (MLN4924 + Olaparib; first compound 0.4 µM) | relative viability (MLN4924 + Olaparib; first compound 1.265 µM) | relative viability (MLN4924 + Olaparib; first compound 4 µM) |
| --- | --- | --- | --- | --- | --- | --- | --- | --- | --- | --- | --- | --- | --- | --- | --- | --- | --- | --- | --- | --- |
| NCI-H1355 | 0.982 | 0.847 | 0.657 | 0.268 | 0.302 | 1.16 | 1.18 | 1.02 | 1.02 | 1.02 | 0.745 | 0.673 | 0.648 | 0.655 | 0.559 | 0.688 | 0.516 | 0.525 | 0.306 | 0.186 |
| NCI-H1755 | 0.921 | 0.677 | 0.392 | 0.178 | 0.154 | 0.868 | 0.935 | 0.853 | 0.848 | 0.743 | 0.793 | 0.834 | 0.874 | 0.722 | 0.685 | 0.859 | 0.544 | 0.491 | 0.254 | 0.171 |
| NCI-H2009 | 0.809 | 0.365 | 0.293 | 0.0903 | 0.0793 | 1.06 | 1 | 0.987 | 0.965 | 0.611 | 0.75 | 0.771 | 0.723 | 0.704 | 0.477 | 0.449 | 0.382 | 0.143 | 0.146 | 0.0556 |
| LK-2 | 0.86 | 0.639 | 0.411 | 0.195 | 0.225 | 0.196 | 0.224 | 0.242 | 0.233 | 0.228 | 0.154 | 0.299 | 0.273 | 0.306 | 0.31 | 0.4 | 0.312 | 0.234 | 0.151 | 0.137 |
| HCC-827 | 0.925 | 0.747 | 0.492 | 0.275 | 0.237 | 0.97 | 0.93 | 0.916 | 0.816 | 0.87 | 1.15 | 0.9 | 0.768 | 0.765 | 0.713 | 0.637 | 0.412 | 0.34 | 0.164 | 0.141 |
| NCI-H322M | 1.3 | 1.22 | 0.844 | 0.338 | 0.382 | 1.07 | 0.964 | 0.963 | 0.926 | 0.854 | 0.994 | 0.855 | 0.928 | 0.91 | 0.709 | 0.708 | 0.511 | 0.498 | 0.372 | 0.427 |
| IA-LM | 0.238 | 0.159 | 0.0746 | 0.0607 | 0.0616 | 0.772 | 0.818 | 0.767 | 0.694 | 0.486 | 0.952 | 1.05 | 1.05 | 0.913 | 0.81 | 0.458 | 0.297 | 0.227 | 0.0664 | 0.0734 |
| NCI-H727 | 0.303 | 0.255 | 0.269 | 0.231 | 0.19 | 0.988 | 0.953 | 0.704 | 0.614 | 0.317 | 1.38 | 1.15 | 1.17 | 1.03 | 0.831 | 0.599 | 0.422 | 0.559 | 0.369 | 0.481 |
| NCI-H1944 | 1.05 | 0.979 | 0.873 | 0.209 | 0.215 | 1.05 | 1.17 | 1 | 0.916 | 0.788 | 0.533 | 0.61 | 0.59 | 0.523 | 0.368 | 0.405 | 0.296 | 0.304 | 0.162 | 0.139 |
| BEN | 0.0403 | 0.0516 | 0.045 | 0.0476 | 0.0518 | 1.15 | 0.946 | 0.78 | 0.79 | 0.761 | 0.658 | 0.611 | 0.598 | 0.625 | 0.581 | 0.662 | 0.328 | 0.264 | 0.189 | 0.207 |
| CAL-12T | 1.11 | 1.11 | 0.469 | 0.398 | 0.204 | 0.856 | 0.7 | 0.738 | 0.66 | 0.707 | 0.606 | 0.768 | 0.733 | 0.802 | 0.891 | 0.667 | 0.538 | 0.249 | 0.17 | 0.13 |
| NCI-H2170 | 0.709 | 0.313 | 0.34 | 0.144 | 0.164 | 1.13 | 1.18 | 1.21 | 1.13 | 0.971 | 0.94 | 0.811 | 0.89 | 0.737 | 0.413 | 0.413 | 0.229 | 0.195 | 0.148 | 0.113 |
| NCI-H2085 | 1.25 | 1.1 | 1.12 | 0.733 | 0.366 | 1.01 | 0.932 | 0.778 | 0.754 | 0.676 | 0.803 | 0.764 | 0.839 | 0.761 | 0.711 | 0.837 | 0.747 | 0.868 | 0.485 | 0.363 |
| EKVX | 0.861 | 0.816 | 0.352 | 0.173 | 0.148 | 1.19 | 1.09 | 0.985 | 0.875 | 0.947 | 0.746 | 0.659 | 0.682 | 0.676 | 0.693 | 0.801 | 0.588 | 0.531 | 0.206 | 0.169 |
| 201T | 1.28 | 1.21 | 1.2 | 0.514 | 0.556 | 1.03 | 1.06 | 1.02 | 1.06 | 0.994 | 1.06 | 0.948 | 0.995 | 0.962 | 0.926 | 0.832 | 0.589 | 0.548 | 0.225 | 0.267 |
